This is an account of results in US9199922B2, “Dihalophenoxyphenylamidines and use thereof as fungicides” (BAYER INTELLECTUAL PROPERTY GMBH, priority 2007, dated 2015).

Where two headings read alike, the source gives them in different places.

The nature of this data set: logP determination (acidic / neutral). The format is physicochemical.
The mark [1] stands for this setting: pH 2.3, read-out: log P (pH 2.3).

On to `Cc1cc(Oc2ccc(Cl)c(Cl)c2)c(C)cc1N` [4-(3,4-Dichlorophenoxy)-2,5-dimethylaniline], for which the logP under setting [1] turned out to be 3.51.
Turning to `Cc1cc([N+](=O)[O-])c(C)cc1Oc1ccc(Cl)c(Cl)c1` [4-(3,4-Dichlorophenoxy)-2,5-dimethylnitrobenzene], the “log P (pH 2.3)” value (pH 2.3) is 5.19.
Consider `CCN(C)C=Nc1cc(C)c(Oc2ccc(F)c(F)c2)cc1C` [Compound 2], for which the logP acidic was determined as 2.37. For the same compound, under “neutral”, the logP neutral is reported as 6.2.
The matching figures for `CCN(C)C=Nc1cc(C)c(Oc2cc(F)cc(Br)c2)cc1C` [Compound 3]: 2.29 and 5.8.
The corresponding values for `CCN(C)C=Nc1cc(C)c(Oc2cc(Br)cc(Br)c2)cc1C` [Compound 4] are 2.5 and 6.
The compound `Cc1cc(Oc2cc(Br)cc(Br)c2)c(C)cc1N=CN(C)C(C)C` [Compound 5] returned a logP acidic of 2.62. For the setting “neutral”, this compound yielded a logP neutral of 6.4.
The compound `CCN(C)C=Nc1cc(C)c(Oc2cc(Cl)cc(Br)c2)cc1C` [Compound 6] gave a logP acidic of 2.56. The compound further had a logP neutral (neutral) of 6.4.
The corresponding values for `Cc1cc(Oc2cc(Cl)cc(Br)c2)c(C)cc1N=CN(C)C(C)C` [Compound 7] are 2.7 and 6.8.
The matching figures for `CCN(C)C=Nc1cc(C)c(Oc2cc(F)cc(Cl)c2)cc1C` [Compound 8]: 2.21 and 5.6.
The matching figures for `Cc1cc(Oc2cc(F)cc(Cl)c2)c(C)cc1N=CN1CCCCC1` [Compound 9]: 2.42 and 6.3.
The compound `Cc1cc(Oc2cc(F)cc(Cl)c2)c(C)cc1N=CN1CCCC1` [Compound 10] registered a logP acidic of 2.26. Also, the logP neutral (neutral) was 5.6.
With `CCCN(C)C=Nc1cc(C)c(Oc2cc(F)cc(Cl)c2)cc1C` [Compound 11], the logP acidic was 2.39. For the same compound, the logP neutral (neutral) amounted to 6.1.
Take `Cc1cc(Oc2cc(F)cc(Br)c2)c(C)cc1N=CN1CCCCC1` [Compound 12]: the logP acidic is on record as 2.55. For the same compound, where the note is “neutral”, the logP neutral was determined as 6.5.
The matching figures for `CCN(C)C=Nc1cc(C)c(Oc2ccc3c(c2)CCCC3)cc1C` [Compound 13]: 2.37 and 5.7.
The corresponding values for `CCCN(C)C=Nc1cc(C)c(Oc2cc(F)cc(Br)c2)cc1C` [Compound 14] are 2.37 and 7.4.
The matching figures for `CCN(C)C=Nc1cc(C)c(Oc2ccc(Cl)c(Br)c2)cc1C` [Compound 15]: 2.23 and 6.1.
`Cc1cc(Oc2ccc(Cl)c(Br)c2)c(C)cc1N=CN1CCCCC1` [Compound 16] had a logP acidic of 2.66. The same compound showed a logP neutral (neutral) of 6.9.
In turn, `CCCN(C)C=Nc1cc(C)c(Oc2ccc(Cl)c(Br)c2)cc1C` [Compound 17] came in with a logP acidic of 2.64. Further, the logP neutral (neutral) was determined as 6.6.
In turn, `Cc1cc(Oc2ccc(Cl)c(Br)c2)c(C)cc1N=CN1CCCC1` [Compound 18] yielded a logP acidic of 2.56. Moreover, the logP neutral (neutral) is 6.6.
As to `CCN(C)C=Nc1cc(C)c(Oc2cc(F)cc(I)c2)cc1C` [Compound 19], the logP acidic is on record as 2.4.
In turn, `CCCN(C)C=Nc1cc(C)c(Oc2cc(F)cc(I)c2)cc1C` [Compound 20] came in with a logP acidic of 2.61. The compound further registered a logP neutral (neutral) of 6.6.
The corresponding values for `Cc1cc(Oc2cc(F)cc(I)c2)c(C)cc1N=CN1CCCCC1` [Compound 21] are 2.6 and 6.8.
The matching figures for `Cc1cc(Oc2cc(F)cc(I)c2)c(C)cc1N=CN1CCCC1` [Compound 22]: 2.46 and 6.6.
`CCN(C)C=Nc1cc(C)c(Oc2ccc(F)c(Br)c2)cc1C` [Compound 23] gave a logP acidic of 2.29. For the setting “neutral”, this compound had a logP neutral of 5.7.
`Cc1cc(Oc2ccc(Cl)c(I)c2)c(C)cc1N=CN(C)C(C)C` [Compound 24]: the logP acidic was determined as 2.4. This compound gave a logP neutral (neutral) of 6.2.
In the case of `CCN(C)C=Nc1cc(C)c(Oc2ccc(Cl)c(I)c2)cc1C` [Compound 25], the logP acidic is 2.29.
Still for that read-out and setting: in the case of `Cc1cc(Oc2ccc(Cl)c(I)c2)c(C)cc1N=CN1CCCCC1` [Compound 26] it was 2.52.
Take `CCN(C)C=Nc1cc(C)c(Oc2ccc(Br)c(I)c2)cc1C` [Compound 27]: the logP acidic came to 2.67. Where the note is “neutral”, this compound returned a logP neutral of 6.1.
In turn, `CCCN(C)C=Nc1cc(C)c(Oc2cc(F)cc(Br)c2)cc1C` [Compound 28] returned a logP acidic of 2.91. Also, the logP neutral (neutral) is reported as 6.9.
In turn, `Cc1cc(Oc2cc(F)cc(Br)c2)c(C)cc1N=CN1CC(C)OC(C)C1` (stereo not shown) [Compound 29] came in with a logP acidic of 2.59. The compound also came in with a logP neutral (neutral) of 5.8.
For `CCN(C)C=Nc1cc(C)c(Oc2ccc(Cl)c(Cl)c2)cc1C` [Compound 30, N-Ethyl-N-methyl-N′-[4-(3,4-dichlorophenoxy)-2,5-dimethylphenyl]formamidine], the logP reads like this: (neutral, read-out: logP neutral) 6.07; under setting [1], 2.48.
As to `Cc1cc(Oc2ccc(Br)c(F)c2)c(C)cc1N=CN1CCCCC1` [Compound 31], the logP acidic is given as 2.39.
On the same count and under the same terms, the same measure for `CCN(C)C=Nc1cc(C)c(Oc2ccc(Br)c(F)c2)cc1C` [Compound 32]: 2.2.
With `CCCN(C)C=Nc1cc(C)c(Oc2cc(F)cc(F)c2)cc1C` [Compound 33], the logP acidic came out at 2.04. This compound also came in with a logP neutral (neutral) of 5.54.
The corresponding values for `Cc1cc(Oc2cc(F)cc(F)c2)c(C)cc1N=CN1CCCCC1` [Compound 35] are 2.03 and 5.79.
The compound `C=CCN(C)C=Nc1cc(C)c(Oc2ccc(Br)c(Br)c2)cc1C` [Compound 37] had a logP acidic of 2.24. Where the note is “neutral”, the logP neutral was found to be 6.3.
The matching figures for `CCCN(C)C=Nc1cc(C)c(Oc2ccc(Br)c(Br)c2)cc1C` [Compound 38]: 2.45 and 6.62.
The corresponding values for `Cc1cc(Oc2ccc(Br)c(Br)c2)c(C)cc1N=CN1CCCCC1` [Compound 39] are 2.48 and 6.93.
As for `Cc1cc(Oc2cc(F)cc(Br)c2)c(C)cc1N=CN(C)CC1CC1` [Compound 40], the logP acidic stood at 2.25.
